Laboratory results as given in patent US20100113599A1, “AMPHIPATHIC CARBOXYLATES FOR THE TREATMENT OF IMMUNE-RELATED DISORDERS” (Syndromex Ltd. c/o Yissum Research Development Company, of, priority 2007, published 2010).

Columns and labels:
[1] = tested on: STAT3, GP130; assay: STAT3 activation and GP130 in stimulated spleen cells of treated EAE mice (Western blot); format: in vivo; conditions: EAE mice 60 mg/kg/day 12 days by gavage
Protocol: To further investigate the preventive potential of MEDICA drugs, and specifically of M16αα on EAE model, the effect of these drugs on different pathways involving activation of the immune system have been next examined. Therefore, female mice were treated with M16αα (60 mg/kg/day) or vehicle (1% CMC, the control group) for 12 days by gavage. On the third day EAE has been induced by injection of the MOG35-55 peptide. Nine days following MOG35-55 peptide immunization, mice were anesthesized and sacrificed. Spleenocytes were prepared and were stimulated in vitro with either MOG (100 μg/ml) or LPS (50 μg/ml) and the activation of STAT3 was analyzed by Western blot using anti p-STAT3 (Y705) and anti GP130 antibodies. Liver was immediately frozen in liquid nitrogen and kept at −70 until used for protein and RNA preparation. Total RNA was prepared and analyzed by real time PCR for SAP, SAA, α-fibrinogen and IL-6 gene expression.

[2] = tested on: human CRP; assay: Basal plasma human CRP in hCRPtg mice (ELISA); format: in vivo; conditions: 80 mg/kg/d by gavage for ten days, before treatment 0.619
Protocol: hCRPtg were treated for 10d with M16αα (80 mg/kg/d) dissolved in 1% CMC and administered by gavage. Plasma basal CRP was determined before and at the end of treatment by ELISA.
Unlike human CRP, mouse CRP is not an acute-phase reactant, and is synthesized hi trace amounts only. However, male hCRP transgene mice (hCRPtg), having the human CRP gene flanked by most of human CRP promoter integrated in their genome, constitutively produce human CRP, with serum levels ranging between 10 and 20 μg/mL.
Therefore, hCRPtg mice were treated for ten days with M16αα (80 mg/kg/d) dissolved in 1% CMC and administered by gavage. Plasma CRP was determined by ELISA at the beginning and at the end of treatment. […] The inventors further examined the effect of the MEDICA drugs on LPS-induced CRP. Therefore, CRP expression was analyzed in hCRPtg mice treated with M16αα 0.06% (W/W) (about 60 mg/kg body weight/day) for fourteen days and challenged with LPS (25 μg/mice) for the last 18 h. As illustrated by the histogram of FIG. 25, treatment with M16αα decreases LPS-induced levels of human CRP.

[3] = tested on: gp130; assay: gp130 protein levels in HepG2 cells (Western blot); format: cell-based, human; conditions: 200 μM for 17 and 24 h, LIF 20 ng/ml
Protocol: MEDICA drugs inhibit LIF-induced STAT3 phosphorylation. HepG2 cells were incubated with M16αα (200 μM) for 17 and 24 h. At each time point LIF (20 ng/ml) was added for the last 20 minutes (for protein) or for the last 3 h (for mRNA). Western blots of cell lysates were reacted with anti gp130 and anti P-STAT3 (Y705) antibodies and normalized by β-actin.
MEDICA drugs inhibit IL-6-induced STAT3 phosphorylation. HepG2 cells were incubated for 40 h with […] M16αα. IL-6 (20 ng/ml) was added for the last 15 h. Western blots of cell lysates were reacted, with anti GP-130, anti STAT3, anti P-STAT3 (Y705) and anti P-STAT3 (S727) antibodies and normalized by β-actin. Abbreviations: cont. (control), dim. (dimer), Tot. (total), mono. (monomer).
The examined effect of MEDICA drugs on expression of APP, was further analyzed by analyzing the effect of M16αα on downstream elements in the signaling pathway leading to expression of APP. Signal Transducers and Activators of Transcription 3 (STAT3), is a transcription factor phosphorylated by JAK kinases in response to cytokine activation of a cell surface receptor tyrosine kinases. Cytokines that activate STAT3 include growth hormone, IL-6 family cytokines, Oncostatin, LIF, CNTF and G-CSF, Leptin and others. […]

[4] = tested on: RPMI8226 cells; assay: Growth of Multiple Myeloma RPMI8226 cells, Trypan Blue exclusion; format: cell-based; conditions: 200 μM, from day one
Protocol: Growth Suppression by M16αα of Multiple Myeloma (MM) cells. MM cells were incubated in RPMI 1640 medium in the presence of added M16αα as indicated. Cell number was determined daily by Trypan Blue exclusion.
The inhibitory effect of MEDICA drugs on colon tumor cell proliferation, presumably via activation of apoptosis, encouraged the inventors to further investigate the potential beneficial effect of these compounds on other malignancies. The inventors therefore next examined the effect of the MEDICA drugs using the Multiple myeloma model. U-266 and RPMI-8226 cell lines served as cell models for MM. MM cells were incubated in RPMI 1640 medium in the presence of M16αα as indicated. Cell number was determined daily by Trypan Blue exclusion assay. […] It should be noted that generally, these cells were more sensitive even to lower concentrations of M16αα.

[5] = tested on: U266 cells; assay: Apoptosis markers (PARP, Bcl-2, Bcl-xL) in MM U266 cells (Western blot); format: cell-based; conditions: 200 μM
Protocol: U266 cells were cultured with 200 μM M16αα for time periods as indicated, lysed, Western blotted and reacted with anti STAT3, p-STAT3 (Y705), PARP or Bcl-xL antibodies.
To examine the possibility that the inhibitory effect of M16αα, on Multiple Myeloma may be mediated by enhancement of pro apoptotic mechanism and induction of cell cycle arrest, U266 cells were cultured with 200 μM M16αα in RPMI 1640 medium with 10% FCS for time periods as indicated, lysed, Western blotted and reacted with anti STAT3, p-STAT3 (Y705), PARP or Bcl-xL and Bcl-2 as indicated.

**Q.** How did the “LPS-induced STAT3 (p-STAT3 Y705) in spleen cells” value ([1]; spleenocytes stimulated in vitro with LPS 50 μg/ml) turn out when `CC(C)(CCCCCCCCCCCCC(C)(C)C(=O)O)C(=O)O` [M16αα, 2,2,15,15-tetramethyl-hexadecanedioic acid] was run?
**A.** Its value is “not the LPS-induced STAT3 is suppressed”.

**Q.** What about the “MOG-induced STAT3 (p-STAT3 Y705) in spleen cells” value ([1]; spleenocytes stimulated in vitro with MOG 100 μg/ml) of the same compound?
**A.** Its value is “suppressed”.

**Q.** What about the “basal levels of human CRP in plasma at the end of treatment” value [2] of the same compound?
**A.** The value was 0.396.

**Q.** What about the gp130 protein levels [3] of the same compound?
**A.** The gp130 protein levels was “significantly reduced”.

**Q.** What about the “cell number relative to control” value [4] of the same compound?
**A.** Its value is “about 20 % of control”.

**Q.** What about the “anti-apoptotic markers (Bcl-2, Bcl-xL)” value [5] of the same compound?
**A.** The value was “concomitant decrease”.

**Q.** And the “cleavage of PARP” value ([5]; compared to control cells)?
**A.** Its value is “enhancement”.
